{"source": "paper PMC8279484", "about": "(Journal of Medicinal Chemistry, 2021)", "type_in_all_cases": "cell-based, human", "key": {"NF-κB": {"system": "NF-κB", "assay": "LPS-induced NF-κB-driven luciferase gene reporter assay in THP-1 Lucia monocytes", "conditions": "for Rel. Slope: HS relative to LXA4 (1); for Efficacy Rel. Eff.: Imax relative to LXA4 (1); for reduction of LPS-induced NF-κB-driven luciferase activity: approximate extent; for reduction of LPS-induced NF-κB-driven luciferase activity / Imax (%): 1 pM–1 μM; for Imax (%): maximal % inhibition of LPS (50 ng/mL)-stimulated NF-κB luciferase activity, 30 min pretreatment", "protocol": "Mycoplasma-free THP-1-Lucia NF-κB cells were grown in an RPMI 1640 (Gibco) medium containing 2 mM L-glutamine, 1.50 g/L sodium bicarbonate, 4.50 g/L glucose, 10 mM N-(2-hydroxyethyl)piperazine-N′-ethanesulfonic acid (HEPES), and 1 mM sodium pyruvate. Then, 10% heat-inactivated fetal bovine serum (FBS) (30 min at 56 °C), 100 μg/mL Normocin, and Pen-Strep (50 U/mL to 50 μg/mL) were also added to the growth media. As THP-1-Lucia cells were resistant to Zeocin, the latter was used as a selective antibiotic (a high dose, i.e., 100 μg/mL, was alternated every 2 weeks with a low dose, i.e., 10 μg/mL).\n(§1) LXA41 and all of the tested sLXms were dissolved in ethanol and further diluted in a culture medium (final ethanol concentration 0.1%; equivalent concentrations were used as the vehicle control). Prior to in vitro experiments, THP-1-Lucia NF-κB cells were harvested and plated at 1 × 10^5 cells/well on 96-well plates and left to settle in the incubator at 37 °C, 95% humidity, and 5% CO2, in 0.1% FBS-containing media, pretreated for 30 min with increasing doses of LXA41, sLXms (from 10^–12 to 10^–6 M), or appropriate controls, followed by stimulation with 50 ng/mL LPS for 24 h.\nNFκB activity was monitored in the human THP-1 monocytic leukemia cell line containing a stably integrated NF-κB-inducible Lucia reporter construct (as previously reported).[21] When stimulated with LPS, the transcription factor NF-κB is activated, upregulating the synthesis of proinflammatory mediators, thus bringing about an inflammatory response. In these cells, NF-κB activation is linked to a […] luciferase gene and can be measured using luminescence.\nHeat-killed listeria monocytogenes (HKLM) (10^8/mL) was used as a positive control.[28] The levels of NF-κB-induced Luciferase were then measured in a culture supernatant using QUANTI-Luc as the detection reagent, and measurements were taken on a bioluminescence reader.\nAfter 24 h, the levels of NF-κB-induced Lucia were assayed in a cell culture supernatant using QUANTI-Luc, as a detection reagent, on a bioluminescence reader (Synergy HT, BioTek Instruments, Inc. Vermont). Aliquots of the supernatant were retained for subsequent cytokine and LDH assays. Cellular proteins were extracted with a radioimmunoprecipitation assay (RIPA) buffer (Thermo Fisher, Ireland), supplemented with protease inhibitors (Sigma-Aldrich, Ireland). Lysates were clarified by centrifugation (3200g, 10’, 4 °C) to remove cell debris, and the cell protein level was quantified by performing a bicinchoninic acid (BCA) assay (as per the manufacturer’s instructions) reading the protein absorbance at 570 nm, using a spectrophotometer (SPECTRAMAX M2, Molecular Devices (U.K.) Limited). A “relative luminescence unit” (RLU) was obtained using the average value of the lum/abs ratio of two replicates.\nThe “coding” of the heat-map indicates the arbitrary criteria to assign points to each single PD component (efficacy = Imax or Emax; potency = IC50 or EC50; slope = HS) to generate a final (aggregate) relative PD score. […] If a single PD component was equal to the reference level (x = 1), then the single-component relative score was arbitrarily set to 0 (gray). If a single PD component was smaller than the reference level (x < 1), then the single-component relative score was arbitrarily set to −1 (light red) or −2 (dark red). If the curve of a single PD component was best fitting to a flat line (x = 0), then the single-component relative score was arbitrarily set to −4 (purple) (Table S1)."}, "THP-1 LUCIA monocytes [1]": {"system": "THP-1 LUCIA monocytes", "assay": "In vitro safety study: Safety index (Si), activity versus toxicity", "conditions": "for IC50: Homo sapiens, THP-1, highest IC50 among the LPS-challenged assays (NF-κB activity, cytokine, LDH release), read-out: Extrinsic Activity hIC50; for Safety Index TC50/IC50: ratio of intrinsic TC50 to extrinsic hIC50", "protocol": "A postanalysis “safety study” was conducted on all QNX-sLXms. For each tested compound, we calculated an in vitro “Safety index” (Si) by relating its “anti-inflammatory half-maximal activity” (the highest dose among the IC50 of the extrinsic LPS-challenged phenotype: NF-κB activity, proinflammatory cytokine, and LDH release) to its intrinsic “toxicity” (expressed as the relative half-maximal LDH-associated cytotoxicity). The generated Si is potentially predictive of a translational “therapeutic” range: the higher the Si, the safer the molecule is. As summarized in Table S4, Si values from all tested compounds fall in a broad range (7–50)."}, "IFNγ": {"system": "IFNγ", "assay": "LPS-induced IFNγ release from THP-1 Lucia monocytes (multiplex electrochemiluminescence)", "protocol": "as §1, with “h. Untreated (Unt) or vehicle-treated (Veh) cells were used as negative controls; 1 pM (1R)-5, the (1R)-epimer of the benzo-mimetic, was used as a positive control for any aromatic mimetic; and, finally, we compared the observed effects to the conventional glucocorticoid dexamethasone (Dex) treatment, at 1 μM.” for “h.”\n(§2) After 24 h of exposure to LXA41, sLXms, or vehicle, followed by LPS stimulation (50 ng/mL), as described above, THP-1-Lucia NF-κB-cell supernatants were collected and cleared by centrifugation. Concentrations of IFN-γ, IL-1β, IL-6, IL-8, IL-10, IL-12p70, and TNF-α in culture supernatants were assessed by electro-chemi-luminescent detection, using a commercially available human 96-well plate “multiplex” (several analytes in the same well) kit for tissue culture samples, according to the manufacturers’ guidelines.\n(§3) The “coding” of the heat-map indicates the arbitrary criteria to assign points to each single PD component (efficacy = Imax or Emax; potency = IC50 or EC50; slope = HS) to generate a final (aggregate) relative PD score. If a single PD component was greater than the reference level (x > 1), then the single-component relative score was arbitrarily set to +1 (light green) or +2 (dark green). If a single PD component was equal to the reference level (x = 1), then the single-component relative score was arbitrarily set to 0 (gray). If a single PD component was smaller than the reference level (x < 1), then the single-component relative score was arbitrarily set to −1 (light red) or −2 (dark red). If the curve of a single PD component was best fitting to a flat line (x = 0), then the single-component relative score was arbitrarily set to −4 (purple) (Table S1)."}, "THP-1 LUCIA monocytes [2]": {"system": "THP-1 LUCIA monocytes", "assay": "Intrinsic cytotoxicity: LDH release without LPS", "conditions": "for Intrinsic Toxicity Level: LDH-associated level of cytotoxicity (high / moderate / low); for Intrinsic Toxicity TC50 (pM): half-maximal intrinsic LDH-associated toxic activity, no LPS", "protocol": "We investigated the potential cytotoxicity of all candidate sLXms by assaying LDH release.[50] The response to LPS was arbitrarily set to 100%, and values were expressed relative to this. As previously reported by others, LPS provokes LDH release.[51] […] Ultimately, untreated cells defined the spontaneous cell release thresholds.\nLactate dehydrogenase (LDH) was assayed in cell supernatants to investigate possible cytotoxicity of the lead compound. LDH is rapidly released into the culture medium after disruption of the plasma membrane.[67],[69] After 24 h of exposure to sLXms, vehicle, or controls, followed by LPS stimulation, as described above, THP-1-Lucia NF-κB-cell supernatants were collected and LDH was assayed. Cytotoxicity was evaluated relative to vehicle controls. Maximum releasable LDH was determined in cells lysed with 2% Triton-X-100 (Sigma-Aldrich, Ireland). LDH levels were assessed by reading the absorbance at 490 nm (protein) and 690 nm (background noise), using a spectrophotometer (SPECTRAMAX M2, Molecular Devices (U.K.) Limited)."}, "IL-6": {"system": "IL-6", "assay": "LPS-induced IL-6 release from THP-1 Lucia monocytes (multiplex electrochemiluminescence)", "protocol": "as §1, with “h. Untreated (Unt) or vehicle-treated (Veh) cells were used as negative controls; 1 pM (1R)-5, the (1R)-epimer of the benzo-mimetic, was used as a positive control for any aromatic mimetic; and, finally, we compared the observed effects to the conventional glucocorticoid dexamethasone (Dex) treatment, at 1 μM.” for “h.”\nas §2, §3"}, "IL-1β": {"system": "IL-1β", "assay": "LPS-induced IL-1β release from THP-1 Lucia monocytes (multiplex electrochemiluminescence)", "protocol": "as §1, with “h. Untreated (Unt) or vehicle-treated (Veh) cells were used as negative controls; 1 pM (1R)-5, the (1R)-epimer of the benzo-mimetic, was used as a positive control for any aromatic mimetic; and, finally, we compared the observed effects to the conventional glucocorticoid dexamethasone (Dex) treatment, at 1 μM.” for “h.”\nas §2, §3"}, "[3]": {"conditions": "Homo sapiens, THP-1, LPS 50 ng/mL, 24 h"}, "[4]": {"conditions": "concentration–response, LPS 50 ng/mL, 24 h"}}}
{"smiles": "CCCCCCC[C@@H](O)c1nc2ccccc2nc1/C=C/[C@@H](O)[C@@H](O)CCCC(=O)OC", "note": "[(R)-8, Methyl (5S,6R,E)-5,6-Dihydroxy-8-(3-((R)-1-hydroxyoctyl)quinoxalin-2-yl)oct-7-enoate]", "values": [{"measurement": "Rel. Slope", "setting": "NF-κB", "value": 0.49}, {"measurement": "IC50", "setting": "NF-κB; Homo sapiens, THP-1, LPS 50 ng/mL, 24 h, read-out: Potency IC50", "value": 0.04, "unit": "nM"}, {"measurement": "Potency Rel. Pot.", "setting": "NF-κB; IC50 relative to LXA4 (1)", "value": 1.5}, {"measurement": "Efficacy Rel. Eff.", "setting": "NF-κB", "value": 0.96}, {"measurement": "IC50 (range in words)", "setting": "NF-κB; LPS 50 ng/mL, 24 h", "value": "“pM” range"}, {"measurement": "reduction of LPS-induced NF-κB-driven luciferase activity", "setting": "NF-κB", "value": "10–20%"}, {"measurement": "Imax (%)", "setting": "NF-κB; 24 h", "value": "23 ± 7", "unit": "%"}, {"measurement": "(Single component) Rel. Score: Rel. Pot.", "setting": "NF-κB; score relative to LXA4 (1)", "value": "1 (1 < x < 5)"}, {"measurement": "(Single component) Rel. Score: Rel. Sl.", "setting": "NF-κB; score relative to LXA4 (1)", "value": "-1 (0.01 < x < 1)"}, {"measurement": "(Aggregate) Rel. PD Score", "setting": "NF-κB; sum of efficacy, potency, slope scores relative to LXA4 (1)", "value": 0}, {"measurement": "IC50", "setting": "THP-1 LUCIA monocytes [1]", "value": 0.2, "unit": "nM"}, {"measurement": "Safety Index TC50/IC50", "setting": "THP-1 LUCIA monocytes [1]", "value": 50}, {"measurement": "PD score, IFNγ release", "setting": "IFNγ; relative to LXA4 (1)", "value": "negative PD scores"}, {"measurement": "Intrinsic Toxicity Level", "setting": "THP-1 LUCIA monocytes [2]", "value": "Low-Mod."}, {"measurement": "Intrinsic Toxicity TC50 (pM)", "setting": "THP-1 LUCIA monocytes [2]", "value": "10,000 pM"}]}
{"smiles": "CCCCC[C@H](O)c1nc2ccccc2nc1/C=C/[C@@H](O)[C@@H](O)CCCC(=O)OC", "note": "[(S)-6, Methyl (5S,6R,E)-5,6-Dihydroxy-8-(3-((S)-1-hydroxyhexyl)quinoxalin-2-yl)oct-7-enoate]", "values": [{"measurement": "Rel. Slope", "setting": "NF-κB", "value": 0.47}, {"measurement": "Efficacy Rel. Eff.", "setting": "NF-κB", "value": 1.42}, {"measurement": "reduction of LPS-induced NF-κB-driven luciferase activity", "setting": "NF-κB", "value": "25–35%"}, {"measurement": "Imax (%)", "setting": "NF-κB; 24 h", "value": "34 ± 9", "unit": "%"}, {"measurement": "(Single component) Rel. Score: Rel. Sl.", "setting": "NF-κB; score relative to LXA4 (1)", "value": "1 (1 < x < 10)"}, {"measurement": "IC50", "setting": "THP-1 LUCIA monocytes [1]", "value": 0.02, "unit": "nM"}, {"measurement": "Safety Index TC50/IC50", "setting": "THP-1 LUCIA monocytes [1]", "value": 10}, {"measurement": "IC50", "setting": "IL-6; [3]", "value": 0.001, "unit": "nM"}, {"measurement": "Imax, IL-6 release", "setting": "IL-6; [4]", "value": "98 ± 1", "unit": "%"}, {"measurement": "PD score, IL-6 release", "setting": "IL-6; relative to LXA4 (1)", "value": "+2"}, {"measurement": "rel. slope, IL-6 release", "setting": "IL-6; relative to LXA4 (1)", "value": 2.4}, {"measurement": "Imax, IL-1β release", "setting": "IL-1β; [4]", "value": "completely lost the protective effect"}, {"measurement": "PD score, IL-1β release", "setting": "IL-1β; relative to LXA4 (1)", "value": "−6"}, {"measurement": "IC50", "setting": "IFNγ; [3]", "value": 2, "unit": "nM"}, {"measurement": "Imax, IFNγ release", "setting": "IFNγ; [4]", "value": "74 ± 4", "unit": "%"}, {"measurement": "Intrinsic Toxicity Level", "setting": "THP-1 LUCIA monocytes [2]", "value": "Low-Mod."}, {"measurement": "Intrinsic Toxicity TC50 (pM)", "setting": "THP-1 LUCIA monocytes [2]", "value": 200, "unit": "pM"}]}
